The subject of assay [1] is subclones of RKO colon adenocarcinoma cells (RKOp27 or RKOp21) arrested by Ponasterone A. Description: Alamar Blue cell viability assay, cell cycle specific mode of action: cells arrested by ectopic p27Kip1 induced by Ponasterone A versus proliferating cells. In kind it is cell-based. The settings on record: Homo sapiens, RKO p27 induced (arrested) cells, 10 μM Ponasterone A, 72 hours, value = class bound given in Table A, read-out: −logIC50 RKO p27 induced (arrested) (converted). In a few lines: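 Viability of proliferating versus Ponasterone A (10 μM)-arrested RKOp27/RKOp21 cells after 72 h compound exposure at 37° C, in quadruplicate. Read-out is Alamar Blue fluorescence (544/590 nm) normalised to untreated cells = 100%; values as −log IC50.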
For orientation: Resazurin is reduced to fluorescent resorufin, in cell work by metabolically active cells.

Assay [2] relates to RKO (RKOp27) human colon adenocarcinoma cells. Description: Alamar Blue cell viability assay, anti-proliferative/cytotoxic activity on proliferating RKO subclones. In kind it is cell-based. The settings on record: RKOp27, 72 h, RKO p27 uninduced (proliferating) cells, value = class bound given in Table A, read-out: −logIC50 RKO p27 uninduced (proliferating) (converted). In a few lines:
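Alamar Blue fluorescence (ex 544, em 590 nm) after 72 h compound exposure at 37 °C, 5% CO2, normalised to untreated controls set at 100%. Cells were seeded at 5000 per well and dosed 24 h later with serial semi-logarithmic dilutions in 10% FCS DMEM, four replicates each. −log IC50 [mol/l] was derived from concentration-effect curves.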

Turning to `CCOc1ccccc1CCC(=O)Nc1sc2c(c1C#N)CCC(COC(=O)NCc1conc1C)C2` (stereo not drawn) [Example 198, (3-Methyl-isoxazol-4-ylmethyl)-carbamic acid 3-cyano-2-[3-(2-ethoxy-phenyl)-propanoylamino]-4,5,6,7-tetrahydro-benzo[b]thiophen-6-ylmethyl ester], the figures for the IC50 in assay [1] and in assay [2] were at least 100 µM and at most 501 nM, respectively.
Taken in the same sequence, the figures for `CCOc1ccccc1CCC(=O)Nc1sc2c(c1C#N)CCC(COC(=O)NCc1nccs1)C2` (stereo not drawn) [Example 199, Thiazol-2-ylmethyl-carbamic acid 3-cyano-2-[3-(2-ethoxy-phenyl)-propanoylamino]-4,5,6,7-tetrahydro-benzo[b]thiophen-6-ylmethyl ester] were at least 100 µM and at most 501 nM.
Taken in the same sequence, the figures for `CCOc1ccccc1CCC(=O)Nc1sc2c(c1C#N)CCC(COC(=O)NCc1nnc(C)o1)C2` (stereo not drawn) [Example 200, (5-Methyl-[1,3,4]oxadiazol-2-ylmethyl)-carbamic acid 3-cyano-2-[3-(2-ethoxy-phenyl)-propanoylamino]-4,5,6,7-tetrahydro-benzo[b]thiophen-6-ylmethyl ester] were at least 100 µM and 501 to 2000 nM.
For `CCOc1ccccc1CCC(=O)Nc1sc2c(c1C#N)CCC(COC(=O)N1CCCC1)C2` (stereo not drawn) [Example 201, Pyrrolidine-1-carboxylic acid 3-cyano-2-[3-(2-ethoxy-phenyl)-propanoylamino]-4,5,6,7-tetrahydro-benzo[b]thiophen-6-ylmethyl ester], the IC50 in assay [1] is at least 100 µM; in assay [2], at most 501 nM.
Consider `CCOc1ccccc1CCC(=O)Nc1sc2c(c1C#N)CCC(COC(=O)OCc1ccsn1)C2` (stereo not drawn) [Example 202, Carbonic acid 3-cyano-2-[3-(2-ethoxy-phenyl)-propanoylamino]-4,5,6,7-tetrahydro-benzo[b]thiophen-6-ylmethyl ester isothiazol-3-ylmethyl ester], for which the IC50 in assay [1] is at least 100 µM; in assay [2] it was at most 501 nM.
In the same order, the values of `CCOc1ccccc1CCC(=O)Nc1sc2c(c1C#N)CCC(COC(=O)OCc1nccs1)C2` (stereo not drawn) [Example 203, Carbonic acid 3-cyano-2-[3-(2-ethoxy-phenyl)-propanoylamino]-4,5,6,7-tetrahydro-benzo[b]thiophen-6-ylmethyl ester thiazol-2-ylmethyl ester] are at least 100 µM and at most 501 nM.
Turning to `CCOc1ccccc1CCC(=O)Nc1sc2c(c1C#N)CCC(OC(=O)NCc1cnoc1C)C2` (stereo not drawn) [Example 204, (5-Methyl-isoxazol-4-ylmethyl)-carbamic acid 3-cyano-2-[3-(2-ethoxy-phenyl)-propanoylamino]-4,5,6,7-tetrahydro-benzo[b]thiophen-6-yl ester], the IC50 in assay [1] is at least 100 µM; in assay [2] it was at most 501 nM.
As for `CCOc1ccccc1CCC(=O)Nc1sc2c(c1C#N)CCC(OC(=O)NCc1conc1C)C2` (stereo not drawn) [Example 205, (3-Methyl-isoxazol-4-ylmethyl)-carbamic acid 3-cyano-2-[3-(2-ethoxy-phenyl)-propanoylamino]-4,5,6,7-tetrahydro-benzo[b]thiophen-6-yl ester], the IC50 in assay [1] was at least 100 µM; in assay [2], at most 501 nM.
As for `CCOc1ccccc1CCC(=O)Nc1sc2c(c1C#N)CCC(OC(=O)NCc1nccs1)C2` (stereo not drawn) [Example 206, Thiazol-2-ylmethyl-carbamic acid 3-cyano-2-[3-(2-ethoxy-phenyl)-propanoylamino]-4,5,6,7-tetrahydro-benzo[b]thiophen-6-yl ester], the IC50 was at least 100 µM in assay [1] and at most 501 nM in assay [2].
Taken in the same sequence, the figures for `CCOc1ccccc1CCC(=O)Nc1sc2c(c1C#N)CCC(OC(=O)NCc1ccno1)C2` (stereo not drawn) [Example 207, Isoxazol-5-ylmethyl-carbamic acid 3-cyano-2-[3-(2-ethoxy-phenyl)-propanoylamino]-4,5,6,7-tetrahydro-benzo[b]thiophen-6-yl ester] were at least 100 µM and at most 501 nM.
As to `CCOc1ccccc1CCC(=O)Nc1sc2c(c1C#N)CCC(OC(=O)N1CCCC1)C2` (stereo not drawn) [Example 208, Pyrrolidine-1-carboxylic acid 3-cyano-2-[3-(2-ethoxy-phenyl)-propanoylamino]-4,5,6,7-tetrahydro-benzo[b]thiophen-6-yl ester], the IC50 is at least 100 µM in assay [1] and at most 501 nM in assay [2].
For the molecule `CCOc1ccccc1CCC(=O)Nc1sc2c(c1C#N)CCC(OC(=O)NCc1ccnn1CC)C2` (stereo not drawn) [Example 209, (2-Ethyl-2H-pyrazol-3-ylmethyl)-carbamic acid 3-cyano-2-[3-(2-ethoxy-phenyl)-propanoylamino]-4,5,6,7-tetrahydro-benzo[b]thiophen-6-yl ester], the IC50 in assay [1] is at least 100 µM; in assay [2], at most 501 nM.
On to `CCOc1ccccc1CCC(=O)Nc1sc2c(c1C#N)CCC(OC(=O)NCc1nc(C)cs1)C2` (stereo not drawn) [Example 210, (4-Methyl-thiazol-2-ylmethyl)-carbamic acid 3-cyano-2-[3-(2-ethoxy-phenyl)-propanoylamino]-4,5,6,7-tetrahydro-benzo[b]thiophen-6-yl ester], for which the IC50 in assay [1] is at least 100 µM; in assay [2], 501 to 2000 nM.
Consider `CCOc1ccccc1CCC(=O)Nc1sc2c(c1C#N)CCC(OC(=O)OCc1cncs1)C2` (stereo not drawn) [Example 211, Carbonic acid 3-cyano-2-[3-(2-ethoxy-phenyl)-propanoylamino]-4,5,6,7-tetrahydro-benzo[b]thiophen-6-yl ester thiazol-5-ylmethyl ester], for which the IC50 in assay [1] was at least 100 µM; in assay [2], 501 to 2000 nM.
As for `CCOc1ccccc1CCC(=O)Nc1sc2c(c1C#N)CCC(COC(=O)NCc1cnoc1C)C2` (stereo not drawn) [Example 212, (5-Methyl-isoxazol-4-ylmethyl)-carbamic acid 3-cyano-2-[3-(2-ethoxy-phenyl)-propanoylamino]-4,5,6,7-tetrahydro-benzo[b]thiophen-6-ylmethyl ester], the IC50 in assay [1] is at least 100 µM; in assay [2] it was at most 501 nM.
In the case of `CCOc1ccccc1CCC(=O)Nc1sc2c(c1C#N)CCC(COC(=O)NCc1csc(C)n1)C2` (stereo not drawn) [Example 213, (2-Methyl-thiazol-4-ylmethyl)-carbamic acid 3-cyano-2-[3-(2-ethoxy-phenyl)-propanoylamino]-4,5,6,7-tetrahydro-benzo[b]thiophen-6-ylmethyl ester], the IC50 in assay [1] is at least 100 µM; in assay [2], at most 501 nM.
In the same order, the values of `CCOc1ccccc1CCC(=O)Nc1sc2c(c1C#N)CCC(COC(=O)NCc1nc(C)cs1)C2` (stereo not drawn) [Example 214, (4-Methyl-thiazol-2-ylmethyl)-carbamic acid 3-cyano-2-[3-(2-ethoxy-phenyl)-propanoylamino]-4,5,6,7-tetrahydro-benzo[b]thiophen-6-ylmethyl ester] are at least 100 µM and at most 501 nM.
As to `CCOc1ccccc1CCC(=O)Nc1sc2c(c1C#N)CCC(COC(=O)OCc1cncs1)C2` (stereo not drawn) [Example 215, Carbonic acid 3-cyano-2-[3-(2-ethoxy-phenyl)-propanoylamino]-4,5,6,7-tetrahydro-benzo[b]thiophen-6-ylmethyl ester thiazol-5-ylmethyl ester], the results for the IC50 in assay [1] and in assay [2] were at least 100 µM and at most 501 nM, respectively.
Regarding `CCOc1ccccc1CCC(=O)Nc1sc2c(c1C#N)CCC(COC(=O)N1CCOCC1)C2` (stereo not drawn) [Example 216, Morpholine-4-carboxylic acid 3-cyano-2-[3-(2-ethoxy-phenyl)-propanoylamino]-4,5,6,7-tetrahydro-benzo[b]thiophen-6-ylmethyl ester], the IC50 in assay [1] is at least 100 µM; in assay [2], at most 501 nM.
In the same order, the values of `COCCOC(=O)OC1CCc2c(sc(NC(=O)CCc3cccc(OC)c3)c2C#N)C1` (stereo not drawn) [Example 217, Carbonic acid 3-cyano-2-[3-(3-methoxy-phenyl)-propanoylamino]-4,5,6,7-tetrahydro-benzo[b]thiophen-6-yl ester 2-methoxy-ethyl ester] are at least 100 µM and 501 to 2000 nM.
Taken in the same sequence, the figures for `COCCNC(=O)OC1CCc2c(sc(NC(=O)CCc3cccc(OC)c3)c2C#N)C1` (stereo not drawn) [Example 218, (2-Methoxy-ethyl)-carbamic acid 3-cyano-2-[3-(3-methoxy-phenyl)-propanoylamino]-4,5,6,7-tetrahydro-benzo[b]thiophen-6-yl ester] were at least 100 µM and at most 501 nM.
With `COc1cccc(CCC(=O)Nc2sc3c(c2C#N)CCC(OC(=O)OCc2cccnc2)C3)c1` (stereo not drawn) [Example 219, Carbonic acid 3-cyano-2-[3-(3-methoxy-phenyl)-propanoylamino]-4,5,6,7-tetrahydro-benzo[b]thiophen-6-yl ester pyridin-3-ylmethyl ester], the IC50 was at least 100 µM in assay [1] and 501 to 2000 nM in assay [2].
As for `COc1cccc(CCC(=O)Nc2sc3c(c2C#N)CCC(OC(=O)NCC2CCOCC2)C3)c1` (stereo not drawn) [Example 220], the IC50 is at least 100 µM in assay [1] and 501 to 2000 nM in assay [2].
With `COc1cccc(CCC(=O)Nc2sc3c(c2C#N)CCC(OC(=O)NCc2ccnn2C)C3)c1` (stereo not drawn) [Example 221, (2-Methyl-2H-pyrazol-3-ylmethyl)-carbamic acid 3-cyano-2-[3-(3-methoxy-phenyl)-propanoylamino]-4,5,6,7-tetrahydro-benzo[b]thiophen-6-yl ester], the values for the IC50 in assay [1] and in assay [2] were at least 100 µM and at most 501 nM, respectively.

The record behind these values is patent publication US20110044938A1 (NYCOMED GMBH, priority 2006, published 2011).
